# Test results published in ChEMBL document CHEMBL1143091, “Synthesis and SAR studies of biaryloxy-substituted triazoles as antifungal agents” (2008).
# Assays:
# Aspergillus fumigatus = test: Antimicrobial activity against Aspergillus fumigatus isolates; assay type: functional
# Fonsecaea compacta = test: Antimicrobial activity against Fonsecaea compacta isolates; assay type: functional
# Candida parapsilosis = test: Antimicrobial activity against Candida parapsilosis isolates; conditions: Lodderomyces parapsilosis
# Nannizzia gypsea = test: Antimicrobial activity against Microsporum gypseum isolates; assay type: functional
# Cryptococcus neoformans = test: Antimicrobial activity against Cryptococcus neoformans ATCC 32609; assay type: functional
# Trichophyton rubrum = test: Antimicrobial activity against Trichophyton rubrum isolates; assay type: functional
# Candida albicans = test: Antimicrobial activity against Candida albicans ATCC 76615; assay type: functional
# Candida tropicalis = test: Antimicrobial activity against Candida tropicalis isolates; assay type: functional
SMILES,MIC (Aspergillus fumigatus) [µg/mL],MIC (Fonsecaea compacta) [µg/mL],MIC (Candida parapsilosis) [µg/mL],MIC (Nannizzia gypsea) [µg/mL],MIC (Cryptococcus neoformans) [µg/mL],MIC (Trichophyton rubrum) [µg/mL],MIC (Candida albicans) [µg/mL],MIC (Candida tropicalis) [µg/mL]
CNCc1ccc(-c2ccc(OCC(O)(Cn3cncn3)c3ccc(F)cc3F)cc2)cc1 (stereo not drawn),> 64,4,0.25,1,64,0.0625,0.25,0.25
Cc1ccc(C(=O)Nc2ccc(-c3ccc(OCC(O)(Cn4cncn4)c4ccc(F)cc4F)cc3)cn2)cc1 (stereo not drawn),> 64,1,0.0625,0.25,0.25,0.0625,0.0625,0.0625
C[C@@H]1COC[C@H](C)N1Cc1ccc(C(=O)Nc2ccc(-c3ccc(OCC(O)(Cn4cncn4)c4ccc(F)cc4F)cc3)cn2)cc1 (stereo partly drawn),> 64,16,0.0625,> 64,4,> 64,0.0625,0.0625
OC(Cn1cncn1)(Cn1cncn1)c1ccc(F)cc1F [FLUCONAZOLE],> 64,16,4,1,0.25,1,16,1
C[C@@H](c1ncncc1F)[C@](O)(Cn1cncn1)c1ccc(F)cc1F [VORICONAZOLE],0.25,0.0625,0.0625,0.0156,1,0.0156,0.25,0.0156
OC(COc1ccc(-c2ccc(NCc3cccc(Cl)c3)nc2)cc1)(Cn1cncn1)c1ccc(F)cc1F (stereo not drawn),> 64,4,0.25,1,4,4,4,0.25
CCN(CC)Cc1ccc(C(=O)Nc2ccc(-c3ccc(OCC(O)(Cn4cncn4)c4ccc(F)cc4F)cc3)cn2)cc1 (stereo not drawn),> 64,0.25,0.25,1,4,1,0.0625,0.0625
CN(C/C=C/C#CC(C)(C)C)Cc1cccc2ccccc12 [TERBINAFINE],0.0625,0.0625,0.25,0.0156,0.25,0.0625,1,0.25
O=C(O)c1ccc(NCc2ccc(-c3ccc(OCC(O)(Cn4cncn4)c4ccc(F)cc4F)cc3)cc2)cc1 (stereo not drawn),16,1,0.0625,1,> 64,0.25,0.0156,0.0039
CCC(C)n1ncn(-c2ccc(N3CCN(c4ccc(OC[C@H]5CO[C@](Cn6cncn6)(c6ccc(Cl)cc6Cl)O5)cc4)CC3)cc2)c1=O (stereo partly drawn) [ITRACONAZOLE],1,0.0625,0.0312,0.0625,1,0.0156,0.5,0.25
C[C@@H]1[C@H](O)[C@@H](C)/C=C/C=C/C=C/C=C/C=C/C=C/C=C/[C@H](O[C@@H]2O[C@H](C)[C@@H](O)[C@H](N)[C@@H]2O)C[C@@H]2O[C@](O)(C[C@@H](O)C[C@@H](O)[C@H](O)CC[C@@H](O)C[C@@H](O)CC(=O)O[C@H]1C)C[C@H](O)[C@H]2C(=O)O [AMPHOTERICIN B],16,16,1,1,1,16,0.25,4
